Laboratory results from patent US20050282889A1, “Intracorporeal medicaments for photodynamic treatment of disease” (priority 1996, published 2005).

How the values were obtained:
[1] = Absorbance properties of halogenated xanthenes (λmax, α); type: physicochemical
Excerpt: Certain general properties of this class of agents are discussed in further detail in U.S. Ser. No. 09/130,041, filed on Aug. 6, 1998, U.S. Ser. No. 09/184,388, filed on Nov. 2, 1998, and U.S. Ser. No. 09/216,787, filed on Dec. 21, 1998, which are herein incorporated by reference in their entirety.

[2] = Photochemical quantum yields (triplet, singlet oxygen); type: physicochemical
[3] = Partition coefficient Kp, n-octanol / phosphate buffered saline; type: physicochemical; conditions: ratio of equilibrium concentrations, n-octanol vs PBS pH=7.4
Description: Kp is determined by measuring the ratio of equilibrium concentrations of an agent in a lipophilic phase (n-octanol) contacted with an aqueous phase (phosphate buffered saline, PBS, pH=7.4).

[4] = Retention of agent after intratumoral or peritumoral injection; conditions: intratumoral injection (ICG: within 24 hours)
Description: Initially, tumor cell suspensions (e.g. melanoma, breast tumor, liver tumor, renal carcinoma, gall bladder tumor or prostate tumor) were injected subcutaneously into the flanks of nude mice resulting in formation of primary tumors, within a few weeks, at the injection site having a volume of approximately 0.1 cm^3 to 0.5 cm^3.

Renal Adenocarcinoma = assay: Intratumoral injection plus light, murine tumor model; type: in vivo; conditions: i.t. ICG medicament, tumor 3 × 4 × 5 mm; for No. Tumors Cured: 4 treated

Compound: O=C1OC2(c3ccccc31)c1cc(Cl)c(O)c(Cl)c1Oc1c2cc(Cl)c(O)c1Cl [2′,4′,5′,7′-Tetrachlorofluorescein]
- λmax (nm) EtOH [1]: 520 nm
- λmax (nm) H2O [1]: 510 nm
- φ (singlet oxygen) EtOH [2]: 0.05
- φ (singlet oxygen) H2O [2]: 0.05

Compound: O=C1OC2(c3cc(Cl)c(O)cc3Oc3cc(O)c(Cl)cc32)c2ccccc21 [2′,7′-Dichlorofluorescein]
- λmax (nm) EtOH [1]: 511 nm
- λmax (nm) H2O [1]: 502 nm
- φ (singlet oxygen) EtOH [2]: 0.07
- φ (singlet oxygen) H2O [2]: 0.04

Compound: O=C1OC2(c3ccc(O)cc3Oc3cc(O)ccc32)c2c(Cl)c(Cl)c(Cl)c(Cl)c21 [4,5,6,7-Tetrachlorofluorescein]
- α [1]: 29000 L/cm/mol
- λmax (nm) H2O [1]: 515 nm

Compound: O=C1OC2(c3ccccc31)c1ccc(O)c(Cl)c1Oc1c2ccc(O)c1Cl [4′,5′-Dichlorofluorescein]
- λmax (nm) EtOH [1]: 511 nm
- λmax (nm) H2O [1]: 502 nm
- φ (singlet oxygen) EtOH [2]: 0.07
- φ (singlet oxygen) H2O [2]: 0.04

Compound: O=C(O)c1ccccc1-c1c2cc([N+](=O)[O-])c(=O)c(Br)c-2oc2c(Br)c(O)c([N+](=O)[O-])cc12 [Eosin B]
- α [1]: 39000 L/cm/mol
- λmax (nm) H2O [1]: 522 nm

Compound: O=C([O-])c1ccccc1-c1c2cc(Br)c(=O)c(Br)c-2oc2c(Br)c([O-])c(Br)cc12.[Na+].[Na+] [Eosin Y]
- α [1]: 91000 L/cm/mol
- λmax (nm) EtOH [1]: 523 nm
- λmax (nm) H2O [1]: 517 nm
- λmax (nm) MeOH [1]: 527 nm
- φ (singlet oxygen) EtOH [2]: 0.57
- φ (singlet oxygen) H2O [2]: 0.32
- φ (singlet oxygen) MeOH [2]: 0.39
- φ (triplet) MeOH [2]: 0.28

Compound: O.O=C([O-])c1ccccc1-c1c2cc(I)c(=O)c(I)c-2oc2c(I)c([O-])c(I)cc12.[Na+].[Na+] [Erythrosin B]
- α [1]: 91000 L/cm/mol
- λmax (nm) EtOH [1]: 532 nm
- λmax (nm) H2O [1]: 528 nm
- λmax (nm) MeOH [1]: 529 nm
- φ (singlet oxygen) EtOH [2]: 0.63
- φ (singlet oxygen) H2O [2]: 0.69
- φ (singlet oxygen) MeOH [2]: 0.62
- φ (triplet) MeOH [2]: 0.62
- Kp (partition coefficient) [3]: 1.9

Compound: CCOC(=O)c1ccccc1-c1c2cc(Br)c(=O)c(Br)c-2oc2c(Br)c([O-])c(Br)cc12.[K+] [Ethyl Eosin]
- α [1]: 11000 L/cm/mol
- λmax (nm) EtOH [1]: 532 nm

Compound: O=C1OC2(c3ccc(O)cc3Oc3cc(O)ccc32)c2ccccc21 [Fluorescein]
- α [1]: 64000 L/cm/mol
- λmax (nm) EtOH [1]: 499 nm
- λmax (nm) H2O [1]: 490 nm
- λmax (nm) MeOH [1]: 492 nm
- φ (singlet oxygen) EtOH [2]: 0.03
- φ (singlet oxygen) H2O [2]: 0.03
- φ (singlet oxygen) MeOH [2]: 0.09
- φ (triplet) MeOH [2]: 0.03

Compound: CC1(C)C(/C=C/C=C/C=C/C=C2\N(CCCCS(=O)(=O)O)c3ccc4ccccc4c3C2(C)C)=[N+](CCCCS(=O)(=O)[O-])c2ccc3ccccc3c21 [Indocyanine Green, reference compound]
- Tissue localization after i.t. administration [4]: substantively migrated out of the tumor
- Cure Rate (Renal Adenocarcinoma; No Light control, 0 J/cm^2): 0%
- No. Tumors Cured (Renal Adenocarcinoma; No Light control, 0 J/cm^2): 0
- Cure Rate (Renal Adenocarcinoma; 50 J/cm^2 805 nm): 0%
- No. Tumors Cured (Renal Adenocarcinoma; 50 J/cm^2 805 nm): 0

Compound: O=C([O-])c1c(Cl)c(Cl)c(Cl)c(Cl)c1-c1c2cc(Br)c(=O)c(Br)c-2oc2c(Br)c([O-])c(Br)cc12.[Na+].[Na+] [Phloxine B]
- α [1]: 100000 L/cm/mol
- λmax (nm) EtOH [1]: 548 nm
- λmax (nm) H2O [1]: 541 nm
- λmax (nm) MeOH [1]: 547 nm
- φ (singlet oxygen) EtOH [2]: 0.63
- φ (singlet oxygen) H2O [2]: 0.40
- Kp (partition coefficient) [3]: 1.1

Compound: CCN(CC)CC.CCN(CC)CC.O=C(O)c1c(Cl)c(Cl)c(Cl)c(Cl)c1-c1c2cc(I)c(=O)c(I)c-2oc2c(I)c(O)c(I)cc12 [Rose Bengal Derivative II]
- φ (singlet oxygen) MeOH [2]: 0.72

Compound: CCN(CC)CC.CCOC(=O)c1c(Cl)c(Cl)c(Cl)c(Cl)c1-c1c2cc(I)c(=O)c(I)c-2oc2c(I)c(O)c(I)cc12 [Rose Bengal Derivative I]
- λmax (nm) EtOH [1]: 563 nm
- φ (singlet oxygen) MeOH [2]: 0.74

Compound: O=C1OC2(c3ccccc31)c1ccc(O)c(Br)c1Oc1c2ccc(O)c1Br [Solvent Red 72]
- α [1]: 14000 L/cm/mol
- λmax (nm) MeOH [1]: 450 nm

Compound: Dibromofluorescein
- α [1]: 14000 L/cm/mol
- λmax (nm) EtOH [1]: 510 nm
- λmax (nm) H2O [1]: 504 nm
- φ (singlet oxygen) EtOH [2]: 0.42
- φ (singlet oxygen) H2O [2]: 0.32

Compound: Diiodofluorescein
- α [1]: 58000 L/cm/mol
- λmax (nm) EtOH [1]: 513 nm
- λmax (nm) H2O [1]: 506 nm
- φ (singlet oxygen) EtOH [2]: 0.48
- φ (singlet oxygen) H2O [2]: 0.33
